Test results published in patent publication US9241964B2, “Composition from Sphaeranthus indicus and Garcinia mangostana for the control of metabolic syndrome” (LAILA NUTRACEUTICALS, priority 2009, dated 2016).
Values after ≈ are worked out from the molar mass of the structure shown.

Tests used:
[1] = test system: Matrix Metalloproteinase-3 (MMP-3); test: Inhibition of MMP-3 production in IL-1β induced A549 cells (ELISA); format: cell-based; settings: 10 ng/mL IL-1β induced A549 human lung tumor cells, 24 h, supernatant ELISA
Experimental: A549 cells were induced with 10 ng/ml human IL-1β in absence or presence of different concentrations of LI/DD-II/054A/01 for 24 h as indicated. Secreted MMP-3 concentration in the cell free culture supernatants was measured using MMP-3 ELISA Development Kit (R&D System, Minneapolis, Minn., USA). The MMP-3 concentration in culture supernatants was estimated quantitatively from the standard curve generated using known concentrations of MMP-3. Percentage of MMP-3 inhibition at each concentration of test compound was calculated from the formula: {(Conc. of MMP-3 in IL-1β induced−Conc. of MMP-3 in the test well)×100}÷Conc. of MMP-3 in IL-1β induced wells.
MMP-3 was evaluated in Interleukin-1β induced human lung tumor cell line A549. Briefly, the cells were cultured in DMEM with 2 mM Glutamine, 100 U/mL penicillin, […] streptomycin and 10% fetal bovine serum (Hyclone, Logan, Utah). Five thousand cells per well were seeded into a 96-well cell culture plate (Corning, USA) one day before the experiment. The culture media was replaced with fresh DMEM containing 10% fetal bovine serum. […] The MMP-3 concentration in culture supernatant was estimated quantitatively by interpolating the optical densities into the standard curve generated from known concentrations of MMP-3. […]

PPARγ = test: Immunoblot of PPARγ in 3T3-L1 adipocytes; format: cell-based, mouse; settings: immunoblot normalized with actin
Text: The inventors have then evaluated the modulation of metabolic biomarkers those are primarily responsible for the adipogenesis processes, insulin resistance in type 2 diabetes, obesity, metabolic syndrome and other metabolic disorders such as Peroxisome proliferator-activated receptor gamma (PPARγ), CD36, adipocyte fatty acid binding protein 4 (FABP4 or aP2), Perilipin, and beta-3 Adrenergic Receptor (β3AR) during adipogenesis process in 3T3-L1 adipocytes by ethyl actate extract (LI/DD-II/054A/01) of Sphaeranthus indicus and 7-hydroxyfrullanolide (LI054A01) using an immunoblot assay. […] The protein extracts were evaluated by immunoblot assay, and the immuno-reactive bands were developed with West-pico chemiluminescent substrate and the blot images were captured in a Kodak Image Station, normalized with expression of actin.
Experimental protocol: Mouse pre-adipocyte 3T3-L1 cells are maintained in Dulbecco's Modified Eagles Medium (DMEM) supplemented with 2 mM glutamine, 4.5 g/L glucose and 10% fetal bovine serum. […] Protein content was measured in Bradford method by using Coomassie blue dye and cell lysates were stored in aliquots at −80° C. until further use. […]
Inhibition of protein expression of biomarker molecules adipocytes in presence or absence of Sphaeranthus indicus extract LI/DD-II/054A/01 and 7-hydroxyfrullanolide (LI054A01) was evaluated in immunoblot assay. […]

IC50 against MMP-3 [1]: 0.075 µg/mL (≈ 0.302 µM)
Compound: C=C1C(=O)O[C@H]2C3=C(C)CCC[C@]3(C)CC[C@@]12O [LI054A01, 7-α-hydroxy-4,11(13)-eudesmadien-12,6-olide]
PPARγ protein level (PPARγ): potently ameliorated
